Test results published in patent US20250120927A1, “CNDP2 MODULATORS AND METHODS FOR THEIR USE” (Metabolon Inc., priority 2023, published 2025).

Each compound was assayed against CNDP2 (Homo sapiens (Human), UniProt Q96KP4) (assay: CNDP2 enzyme inhibition assay (Met-His hydrolysis, free histidine by o-phthaldialdehyde fluorescence), dose-response). Conditions: 50 nM purified CNDP2 (Sino Biological), 1 mM Met-His substrate, 30 minutes at 37° C.; TABLE 1.
Assay type: biochemical
Description: To identify optimal conditions for identifying novel inhibitors of CNDP2, enzyme assays were performed with varied sources of purified enzyme, concentrations of enzyme, peptide substrates, concentrations of peptide substrates and metal cofactors. […] The reaction mixture was incubated for 30 minutes at 37° C. before it was quenched with an equal volume of 1% TCA. Free histidine was quantified after derivatization with a fluorophore (o-phthaldialdehyde from Sigma-Aldrich, excitation 340 nm, emission 460 nm). The reaction was conducted in an automation-friendly format to meet future screening throughput demands. A histidine titration standard curve was also included to enable conversion of fluorescence signal to molar concentration of histidine released by the hydrolysis reaction and to ensure the linearity of the fluorescence signal vs. free histidine.
Compounds of Formula (I) disclosed herein were screened for potency in inhibiting CNDP2 enzyme activity in a dose-response experiment. Bestatin was included with each batch of test molecules as a benchmark for assay quality control.

CNDP2, sequence (Q96KP4 whole entry): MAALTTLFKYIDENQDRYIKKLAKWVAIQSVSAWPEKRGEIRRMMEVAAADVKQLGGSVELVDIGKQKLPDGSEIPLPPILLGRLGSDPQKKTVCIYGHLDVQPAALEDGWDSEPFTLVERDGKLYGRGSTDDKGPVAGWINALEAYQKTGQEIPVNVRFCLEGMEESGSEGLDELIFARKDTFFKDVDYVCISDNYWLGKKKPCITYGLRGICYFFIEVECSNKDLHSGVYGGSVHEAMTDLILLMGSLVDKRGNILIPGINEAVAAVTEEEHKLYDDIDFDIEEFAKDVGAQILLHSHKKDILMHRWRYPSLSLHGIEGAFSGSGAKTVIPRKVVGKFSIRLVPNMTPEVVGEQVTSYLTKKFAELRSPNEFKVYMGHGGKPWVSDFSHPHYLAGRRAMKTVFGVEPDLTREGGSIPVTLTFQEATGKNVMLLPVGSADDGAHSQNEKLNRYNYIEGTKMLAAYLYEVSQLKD

Row | IC50 | Structure (SMILES)
1 | ≥ 1 µM | CC(c1ccccc1)[C@H](NC(=O)[C@@H](O)[C@H](N)Cc1ccccc1)C(=O)O (stereo partly drawn) [Compound 14, 2-[[(2S,3R)-3-amino-2-hydroxy-4-phenyl-butanoyl]amino]-3-phenyl-butanoic acid]
2 | ≥ 1 µM | N[C@H](Cc1ccccc1)[C@H](O)C(=O)NC(C(=O)O)C1CCNCC1 (stereo partly drawn) [Compound 29]
3 | 0.1 to 1 µM | N[C@H](Cc1ccccc1)[C@H](O)C(=O)N[C@H](C(=O)O)C1CCCCC1 [Compound 5, (2S)-2-[[(2S,3R)-3-amino-2-hydroxy-4-phenyl-butanoyl]amino]-2-cyclohexyl-acetic acid]
4 | ≥ 1 µM | NC(=O)C(NC(=O)[C@@H](O)[C@H](N)Cc1ccccc1)c1cccc(C(F)(F)F)c1 (stereo partly drawn) [Compound 42]
5 | ≥ 1 µM | N[C@H](Cc1ccccc1)[C@H](O)C(=O)N[C@@H](Cc1ccc(O)cc1)C(=O)O [Compound 19, 2-[[(2S,3R)-3-amino-2-hydroxy-4-phenyl-butanoyl]amino]-3-(4-hydroxyphenyl)propanoic acid]

Same assay, conditions: 50 nM purified CNDP2 (Sino Biological), 1 mM Met-His substrate, 30 minutes at 37° C.; TABLE 2

Row | IC50 | Structure (SMILES)
6 | ≥ 1 µM | N[C@H](Cc1ccccc1)[C@H](O)C(=O)N[C@@H](C(=O)O)c1ccc(F)c(OC(F)(F)F)c1 [Compound 104, (R)-2-((2S,3R)-3-amino-2-hydroxy-4-phenylbutanamido)-2-(4-fluoro-3-(trifluoromethoxy)phenyl)acetic acid]
7 | ≥ 1 µM | N[C@H](Cc1ccc(Cl)cc1)[C@H](O)C(=O)N[C@H](C(=O)O)c1cccc(OC(F)(F)F)c1 [Compound 127, (S)-2-((2S,3R)-3-amino-4-(4-chlorophenyl)-2-hydroxybutanamido)-2-(3-(trifluoromethoxy)phenyl)acetic acid]
8 | ≥ 1 µM | N[C@H](Cc1ccccc1)[C@H](O)C(=O)N[C@@H](c1cccc(OC(F)(F)F)c1)c1n[nH]c(=O)o1 [Compound 75]
9 | ≥ 1 µM | C[C@@](NC(=O)[C@@H](O)[C@H](N)Cc1ccccc1)(C(=O)O)c1cccc(OC(F)(F)F)c1 [Compound 88, (S)-2-((2S,3R)-3-amino-2-hydroxy-4-phenylbutanamido)-2-(3-(trifluoromethoxy)phenyl)propanoic acid]
10 | ≥ 1 µM | C[C@@](NC(=O)[C@@H](O)[C@H](N)Cc1ccccc1)(C(=O)O)c1cccc(C(F)(F)F)c1 [Compound 85, (S)-2-((2S,3R)-3-amino-2-hydroxy-4-phenylbutanamido)-2-(3-(trifluoromethyl)phenyl)propanoic acid]
11 | < 0.1 µM | N[C@H](Cc1ccccc1)[C@H](O)C(=O)N[C@@H](C(=O)O)c1ccc(F)c(C(F)(F)F)c1F [Compound 96, (R)-2-((2S,3R)-3-amino-2-hydroxy-4-phenylbutanamido)-2-(2,4-difluoro-3-(trifluoromethyl)phenyl)acetic acid]
12 | ≥ 1 µM | N[C@H](Cc1ccccc1)[C@H](O)C(=O)N[C@@H](C(=O)O)c1cc(F)cc(OC(F)(F)F)c1 [Compound 102, (R)-2-((2S,3R)-3-amino-2-hydroxy-4-phenylbutanamido)-2-(3-fluoro-5-(trifluoromethoxy)phenyl)acetic acid]
13 | ≥ 1 µM | N[C@H](Cc1ccc(Cl)cc1)[C@H](O)C(=O)N[C@@H](C(=O)O)c1cccc(OC(F)(F)F)c1 [Compound 128, (R)-2-((2S,3R)-3-amino-4-(4-chlorophenyl)-2-hydroxybutanamido)-2-(3-(trifluoromethoxy)phenyl)acetic acid]
14 | < 0.1 µM | N[C@H](Cc1ccccc1)[C@H](O)C(=O)N[C@@H](Cc1cccc(OC(F)(F)F)c1)C(=O)O [Compound 118, (S)-2-((2S,3R)-3-amino-2-hydroxy-4-phenylbutanamido)-3-(3-(trifluoromethoxy)phenyl)propanoic acid]
15 | ≥ 1 µM | N[C@H](Cc1ccccc1)[C@H](O)C(=O)N[C@@H](Cc1ccc(OC(F)(F)F)cc1)C(=O)O [Compound 117, (S)-2-((2S,3R)-3-amino-2-hydroxy-4-phenylbutanamido)-3-(4-(trifluoromethoxy)phenyl)propanoic acid]
